Consider 56 compounds from patent US8765959B2, “Piperidine derivatives” (Boehringer Ingelheim International GmbH, priority 2011, dated 2014).

Like-named read-outs stand apart in the source and are kept apart here.

The experiment deals with T1, human ACC2 (Homo sapiens, UniProt O00763).
T1 construct: made in house; host or cells: insect cells (baculoviral expression system)
As to the kind of experiment: ACC2 assay, spectrophotometric 384 well assay (NADH-linked, coupled lactate dehydrogenase/pyruvate kinase). The format is biochemical. The protocol: Spectrophotometric 384 Well Assay
Malonyl CoA formation by acetyl CoA carboxylases is stoichometrically linked to the consumption of ATP. ACC2 activity is measured in a NADH-linked kinetic method measuring ADP generated during the ACC reaction using a coupled lactate dehydrogenase/pyruvate kinase reaction.
For biological testing, a human ACC2 construct which lacks the 128 amino acids at the N-terminus for increased solubility (nt 385-6966 in Genbank entry AJ575592) is cloned. The protein is then expressed in insect cells using a baculoviral expression system. Protein purification is performed by anion exchange.
All compounds are dissolved in dimethyl sulfoxide (DMSO) to a concentration of 10 mM.
Assay reactions are then carried out in 384-well plates, with hACC2 in an appropriate dilution and at final assay concentrations (f.c.) of 100 mM Tris (pH 7.5), 10 mM trisodium citrate, 25 mM KHCO3, 10 mM MgCl2, 0.5 mg/ml BSA, 3.75 mM reduced L-glutathione, 15 U/ml lactate dehydrogenase, 0.5 mM phosphoenolpyruvate, 15 U/ml pyruvate kinase, compounds at different concentrations at final DMSO concentrations of 1%.
The enzymatic reaction is then started by addition of a mixture of NADH, acetyl Coenzyme A (both 200 μM f.c.) and ATP (500 uM f.c.). The decrease of the optical density (slope S) is then determined at 25° C. at a wavelength of 340 nm over 15 minutes in a spectrophotometric reader.
Each assay microtiter plate contains wells with vehicle instead of compound as controls for the non-inhibited enzyme (100% CTL; ‘HIGH’) and wells without acetyl-CoA as controls for non-specific NADH degradation (0% CTL; ‘LOW’).
The slope S is used for calculation of % CTL=(S(compound)−S(‘LOW’))/(S(‘HIGH’)−S(‘LOW’))*100. Compounds will give values between 100% CTL (no inhibition) and 0% CTL (complete inhibition).
For IC50 value determination, the sample slope in the presence of the test compound after subtraction of the low controls (S(compound)−S(‘LOW’)) are used.
An IC50 value is derived from the compound slopes at different dosages after subtraction of the low controls (S(compound)−S(‘LOW’)) by non-linear regression curve fitting (equation y=(A+((B−A)/(1+((C/x)^D))))).

Setting [1] is: ACC2 assay, human ACC2 construct lacking 128 N-terminal amino acids, 25° C., 340 nm, 15 minutes, read-out: IC50.

T1 sequence (O00763 129-2458 limits assumed): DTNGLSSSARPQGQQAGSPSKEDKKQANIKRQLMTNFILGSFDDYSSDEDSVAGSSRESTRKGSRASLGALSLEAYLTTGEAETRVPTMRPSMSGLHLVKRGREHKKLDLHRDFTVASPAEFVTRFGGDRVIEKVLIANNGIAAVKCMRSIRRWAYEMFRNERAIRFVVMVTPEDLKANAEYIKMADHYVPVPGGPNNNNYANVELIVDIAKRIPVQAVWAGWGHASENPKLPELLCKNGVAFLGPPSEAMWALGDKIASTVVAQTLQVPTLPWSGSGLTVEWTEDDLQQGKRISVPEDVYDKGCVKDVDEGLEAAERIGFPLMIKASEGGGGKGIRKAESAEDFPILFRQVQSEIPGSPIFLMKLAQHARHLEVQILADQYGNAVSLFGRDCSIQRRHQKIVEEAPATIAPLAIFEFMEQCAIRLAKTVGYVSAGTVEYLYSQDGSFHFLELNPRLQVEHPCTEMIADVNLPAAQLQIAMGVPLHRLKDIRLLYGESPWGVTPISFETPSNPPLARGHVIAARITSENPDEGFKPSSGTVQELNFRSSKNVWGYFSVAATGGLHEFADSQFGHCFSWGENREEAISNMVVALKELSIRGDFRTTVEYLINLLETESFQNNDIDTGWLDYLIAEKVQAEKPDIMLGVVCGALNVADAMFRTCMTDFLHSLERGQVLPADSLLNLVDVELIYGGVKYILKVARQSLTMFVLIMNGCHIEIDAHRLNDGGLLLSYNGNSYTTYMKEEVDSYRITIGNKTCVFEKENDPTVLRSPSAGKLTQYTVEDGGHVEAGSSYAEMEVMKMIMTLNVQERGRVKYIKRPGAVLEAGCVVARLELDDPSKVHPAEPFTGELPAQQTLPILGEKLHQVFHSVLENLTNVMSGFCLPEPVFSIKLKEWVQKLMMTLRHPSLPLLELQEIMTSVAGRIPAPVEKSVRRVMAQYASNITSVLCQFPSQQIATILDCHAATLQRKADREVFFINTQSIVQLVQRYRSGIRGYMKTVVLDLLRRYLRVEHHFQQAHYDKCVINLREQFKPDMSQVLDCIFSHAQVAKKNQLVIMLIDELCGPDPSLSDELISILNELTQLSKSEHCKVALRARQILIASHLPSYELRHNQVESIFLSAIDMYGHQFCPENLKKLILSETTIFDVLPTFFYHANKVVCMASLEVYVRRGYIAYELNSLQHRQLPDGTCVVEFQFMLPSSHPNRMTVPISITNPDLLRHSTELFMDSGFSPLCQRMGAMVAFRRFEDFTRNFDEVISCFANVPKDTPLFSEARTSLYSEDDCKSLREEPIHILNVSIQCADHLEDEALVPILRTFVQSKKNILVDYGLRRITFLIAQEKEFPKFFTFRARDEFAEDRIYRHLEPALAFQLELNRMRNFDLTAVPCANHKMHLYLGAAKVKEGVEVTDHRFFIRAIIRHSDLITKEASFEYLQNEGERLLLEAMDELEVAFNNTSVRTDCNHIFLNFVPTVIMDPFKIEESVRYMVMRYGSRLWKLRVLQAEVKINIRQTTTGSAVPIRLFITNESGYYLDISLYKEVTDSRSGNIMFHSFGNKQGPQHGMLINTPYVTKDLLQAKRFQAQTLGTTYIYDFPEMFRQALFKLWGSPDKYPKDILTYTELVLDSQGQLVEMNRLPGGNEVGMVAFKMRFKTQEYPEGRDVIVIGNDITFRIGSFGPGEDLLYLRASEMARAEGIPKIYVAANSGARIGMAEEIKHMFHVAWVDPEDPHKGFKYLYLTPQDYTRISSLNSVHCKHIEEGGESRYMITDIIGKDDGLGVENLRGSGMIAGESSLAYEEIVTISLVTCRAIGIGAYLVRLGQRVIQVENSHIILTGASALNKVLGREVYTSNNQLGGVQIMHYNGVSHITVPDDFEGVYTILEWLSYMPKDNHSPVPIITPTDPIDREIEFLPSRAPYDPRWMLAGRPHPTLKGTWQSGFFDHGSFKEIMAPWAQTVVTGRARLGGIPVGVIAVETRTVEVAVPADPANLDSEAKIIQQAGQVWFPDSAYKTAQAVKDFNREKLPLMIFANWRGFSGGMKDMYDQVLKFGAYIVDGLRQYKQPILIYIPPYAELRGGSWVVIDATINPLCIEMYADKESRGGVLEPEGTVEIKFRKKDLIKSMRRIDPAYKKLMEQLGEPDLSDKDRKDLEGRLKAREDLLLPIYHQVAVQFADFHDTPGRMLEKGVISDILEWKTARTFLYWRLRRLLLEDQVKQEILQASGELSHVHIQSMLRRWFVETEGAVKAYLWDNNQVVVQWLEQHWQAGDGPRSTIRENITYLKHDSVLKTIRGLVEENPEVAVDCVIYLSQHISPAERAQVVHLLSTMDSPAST

On to `CCOc1cccc(C2CCN(c3ccc(C(C)NC(C)=O)c(F)c3)CC2)c1` (centres unmarked) [Example 1.41], for which the IC50 (commonly the concentration that inhibits the measured activity by half) under setting [1] worked out at 1.27 µM.

As for `CCOc1ccc(C2CCN(c3ccc([C@H](C)NC(=O)C(F)(F)F)cc3)CC2)cc1` [Example 2.6], the IC50 under setting [1] worked out at 0.11 µM.

Take `CC(=O)N[C@@H](C)c1ccc(N2CCC(c3cccc(OC(C)C)c3)CC2)cc1` [Example 1.25]: under setting [1], the IC50 came to 0.37 µM.

Regarding `COc1ccc(C2CCN(c3ccc([C@H](C)NC(C)=O)cc3)CC2)cc1` [Example 1.27], under setting [1], the IC50 is 2.16 µM.

As for `C[C@H](NC(=O)C1CC1)c1ccc(N2CCC(c3ccc(OC4CCC4)cc3)CC2)cc1` [Example 1.16], the IC50 under setting [1] is 1.24 µM.

As to `CCOc1ccc(C2CCN(c3ccc([C@H](C)NC(=O)C4(C)CC4)cc3)CC2)cc1` [Example 2.7], the half-inhibitory concentration (IC50) under setting [1] came out at 0.52 µM.

With `CCOc1ccc(C2CCN(c3ccc([C@H](C)NC(=O)C4(C#N)CC4)cc3)CC2)cc1` [Example 2.1, (S)-1-Cyano-cyclopropanecarboxylic acid (1-{4-[4-(4-ethoxy-phenyl)-piperidin-1-yl]-phenyl}-ethyl)-amide], under setting [1], the IC50 amounted to 4.15 µM.

Take `CCCOc1ccc(C2CCN(c3ccc([C@H](C)NC(=O)N(C)C)cc3)CC2)cc1` [Example 1.26]: under setting [1], the IC50 is 0.34 µM.

Take `CCOc1cc(C2CCN(c3ccc([C@H](C)NC(C)=O)cc3)CC2)ccn1` [Example 1.19]: the IC50 under setting [1] was 0.82 µM.

As for `CC(=O)NC(C)c1ccc(N2CCC(c3ccc(OCC4CC4)cc3F)CC2)c(F)c1` (centres unmarked) [Example 1.31], the IC50 under setting [1] is 0.15 µM.

As for `CCOc1ccc(C2CCN(c3ccc(CC(C)NC(C)=O)cc3)CC2)cc1` (centres unmarked) [Example 1.60], under setting [1], the IC50 turned out to be 1.22 µM.

Take `CCOc1ccc(C2CCN(c3ccc([C@H](C)NC(=O)c4cncs4)cc3)CC2)cc1` [Example 2.2]: the IC50 under setting [1] worked out at 0.69 µM.

Regarding `CC(=O)N[C@@H](C)c1ccc(N2CCC(c3cccc(OC4CCC4)c3)CC2)cc1` [Example 1.14], the IC50 under setting [1] is 0.45 µM.

Regarding `CCOc1ccc(C2CCN(c3ccc([C@H](C)NC(=O)N4CCOCC4)cc3)CC2)cc1` [Example 4.3], the half-inhibitory concentration (IC50) under setting [1] worked out at 2.36 µM.

Consider `CCOc1ccc(C2CCN(c3ccc([C@H](C)NC(=O)N(C)CC)cc3)CC2)cc1` [Example 4.1, (S)-3-(1-{4-[4-(4-Ethoxy-phenyl)-piperidin-1-yl]-phenyl}-ethyl)-1-ethyl-1-methyl-urea], for which the IC50 under setting [1] came to 1.98 µM.

In the case of `CCCOc1ccc(C2CCN(c3ccc([C@H](C)NC(C)=O)cc3)CC2)cc1` [Example 1.1, (S)—N-(1-{4-[4-(4-Propoxy-phenyl)-piperidin-1-yl]-phenyl}-ethyl)-acetamide], under setting [1], the IC50 amounted to 0.07 µM.

In the case of `CCOc1ccc(C2CCN(c3ccc([C@H](C)NC(=O)c4sc(NC(C)=O)nc4C)cc3)CC2)cc1` [Example 3.6], the IC50 under setting [1] worked out at 0.2 µM.

Turning to `CCOc1ccc(C2CCN(c3ccc([C@H](C)NC(=O)N(C)C)cc3)CC2)cc1` [Example 1.17], the IC50 under setting [1] was 0.82 µM.

Take `CC(C)Oc1ccc(C2CCN(c3ccc([C@H](C)NC(=O)N(C)C)cc3)CC2)cc1` [Example 1.9]: the IC50 under setting [1] was 0.61 µM.

`CCOc1ccc(C2CCN(c3ccc(C(C)NC(C)=O)c(F)c3)CC2)cc1` (centres unmarked) [Example 1.45]: the IC50 under setting [1] amounted to 0.35 µM.

Regarding `COc1cc(C(C)NC(C)=O)ccc1N1CCC(c2ccc(OC3CCC3)cc2)CC1` (centres unmarked) [Example 1.51], under setting [1], the IC50 was 4.41 µM.

On to `CCOc1ccc(C2CCN(c3ccc([C@H](C)NC(=O)Cc4cc[nH]c4)cc3)CC2)cc1` [Example 3.4], for which, under setting [1], the IC50 is 4.88 µM.

As for `CCOc1ccc(C2CCN(c3ccc([C@H](C)NC(=O)c4cncc(NC(C)=O)c4)cc3)CC2)cc1` [Example 3.5], the IC50 under setting [1] was 4.53 µM.

Regarding `C[C@H](NC(=O)N(C)C)c1ccc(N2CCC(c3ccc(OC4CCC4)cc3)CC2)cc1` [Example 1.22], the half-maximal inhibitory concentration (IC50) under setting [1] is 0.25 µM.

Compound `CCOc1ccc(C2CCN(c3ccc([C@H](C)NC(=O)CF)cc3)CC2)cc1` [Example 3.8] returned a concentration for half-maximal inhibition (IC50) of 0.44 µM.

As to `CC(=O)NC(C)c1ccc(N2CCC(c3ccc(OC(C)C)cc3)CC2)c(F)c1` (centres unmarked) [Example 1.33], the IC50 under setting [1] turned out to be 0.46 µM.

On to `C[C@H](NC(=O)C1CC1)c1ccc(N2CCC(c3ccc(OCC4CC4)cc3)CC2)cc1` [Example 1.15], for which the IC50 under setting [1] was 1.85 µM.

Take `CC(=O)NC(C)c1ccc(N2CCC(c3cccc(OC(C)C)c3)CC2)cc1F` (centres unmarked) [Example 1.42]: the IC50 under setting [1] came out at 1.26 µM.

Regarding `CC(=O)N[C@@H](C)c1ccc(N2CCC(c3ccc(OC4CCC4)cc3)CC2)cc1` [Example 1.4], the half-inhibitory concentration (IC50) under setting [1] worked out at 0.23 µM.

As to `CCOc1cccc(C2CCN(c3ccc([C@H](C)NC(C)=O)cc3)CC2)c1` [Example 1.6], the IC50 under setting [1] was determined as 1.12 µM.

On to `CC(C)Oc1ccc(C2CCN(c3ccc([C@H](C)NC(=O)C4CC4)cc3)CC2)cc1` [Example 1.10], for which the IC50 under setting [1] is 0.8 µM.

As for `CCCOc1ccc(C2CCN(c3ccc(C(C)NC(C)=O)cc3F)CC2)cc1` (centres unmarked) [Example 1.32], the IC50 under setting [1] was determined as 0.23 µM.

Regarding `CCOc1ccc(C2CCN(c3ccc([C@H](C)NC(=O)OC)cc3)CC2)cc1` [Example 5.1, (S)-(1-{4-[4-(4-Ethoxy-phenyl)-piperidin-1-yl]-phenyl}-ethyl)-carbamic acid methyl ester], under setting [1], the IC50 came to 2.09 µM.

`CCCOc1ccc(C2CCN(c3ccc(C(C)NC(C)=O)c(F)c3)CC2)c(C)c1` (centres unmarked) [Example 1.44]: under setting [1], the IC50 came out at 0.16 µM.

On to `CC(=O)NC(C)c1ccc(N2CCC(c3ccc(OCC4CC4)cc3F)CC2)cc1F` (centres unmarked) [Example 1.48], for which, under setting [1], the IC50 was determined as 0.46 µM.

`CCOc1ccc(C2CCN(c3ccc([C@H](C)NC(=O)C4CC4)cc3)CC2)cc1` [Example 1.8]: the IC50 under setting [1] was found to be 0.68 µM.

Take `CCOc1ccc(C2CCN(c3ccc([C@H](C)NC(C)=O)cc3)CC2)cn1` [Example 1.12]: the IC50 under setting [1] worked out at 3.17 µM.

As to `CCCOc1ccc(C2CCN(c3ccc([C@H](C)NC(C)=O)cc3)CC2)c(C)c1` [Example 1.3], the IC50 under setting [1] came out at 0.05 µM.

For the compound `CCOc1ccc(C2CCN(c3ccc(CCC(C)NC(C)=O)cc3)CC2)cc1` (centres unmarked) [Example 1.70], the IC50 under setting [1] was found to be 8.47 µM.

Turning to `CCOc1ccc(C2CCN(c3ccc([C@H](C)NC(C)=O)cc3)CC2)cc1` [Example 1.2], the IC50 under setting [1] worked out at 0.15 µM.

As for `CCOc1ccc(C2CCN(c3ccc([C@H](C)NC(=O)C(F)F)cc3)CC2)cc1` [Example 3.2], under setting [1], the IC50 is 0.38 µM.

Consider `CCOc1ccc(C2CCN(c3ccc([C@H](C)NC(C)=O)cc3)CC2)c(OC)c1` [Example 1.11], for which the IC50 under setting [1] is 0.44 µM.

As for `COc1ccc(C2CCN(c3ccc(CC(C)NC(C)=O)cc3)CC2)cc1` (centres unmarked) [Example 1.61], the half-maximal inhibitory concentration (IC50) under setting [1] turned out to be 4.47 µM.

Take `CCCOc1ccc(C2CCN(c3ccc(C(C)NC(C)=O)cc3OC)CC2)cc1` (centres unmarked) [Example 1.52]: the IC50 under setting [1] turned out to be 4.23 µM.

`CCOc1ccc(C2CCN(c3ccc([C@H](C)N(C)C(C)=O)cc3)CC2)cc1` [Example 6.1, (S)—N-(1-{4-[4-(4-Ethoxy-phenyl)-piperidin-1-yl]-phenyl}-ethyl)-N-methyl-acetamide]: the IC50 under setting [1] came out at 3.43 µM.

`CC(=O)N[C@@H](C)c1ccc(N2CCC(c3ccc(OCC4CC4(F)F)cc3)CC2)cc1` (some centres unmarked) [Example 1.7]: the IC50 under setting [1] amounted to 0.09 µM.

On to `CC(=O)NC(C)c1ccc(N2CCC(c3ccc(OC(C)C)cc3)CC2)cc1F` (centres unmarked) [Example 1.46], for which the IC50 under setting [1] came out at 0.37 µM.

`CCOc1ccc(C2CCN(c3ccc([C@H](C)NC(=O)CO)cc3)CC2)cc1` [Example 3.9]: under setting [1], the IC50 turned out to be 4.98 µM.

As to `CCCOc1ccc(C2CCN(c3ccc([C@H](C)NC(=O)C4CC4)cc3)CC2)cc1` [Example 1.21], the half-maximal inhibitory concentration (IC50) under setting [1] amounted to 0.64 µM.

For `CC(=O)N[C@@H](C)c1ccc(N2CCC(c3cccc(OCC4CC4)c3)CC2)cc1` [Example 1.5], the IC50 under setting [1] stood at 0.88 µM.

With `CCOc1ccc(C2CCN(c3ccc([C@H](C)NC(=O)COC)cc3)CC2)cc1` [Example 2.5], the half-inhibitory concentration (IC50) under setting [1] came to 6.91 µM.

For the compound `CCOc1ccc(C2CCN(c3ccc([C@H](C)NC(=O)C(C)F)cc3)CC2)cc1` (some centres unmarked) [Example 3.3], under setting [1], the concentration for half-maximal inhibition (IC50) was found to be 0.76 µM.

In the case of `CCOc1ccc(C2CCN(c3ccc([C@H](C)NC(=O)c4coc(NC(C)=O)n4)cc3)CC2)cc1` [Example 3.1, (S)-2-Acetylamino-oxazole-4-carboxylic acid (1-{4-[4-(4-ethoxy-phenyl)-piperidin-1-yl]-phenyl}-ethyl)-amide], the IC50 under setting [1] was determined as 2.77 µM.

On to `CCCOc1cccc(C2CCN(c3ccc([C@H](C)NC(C)=O)cc3)CC2)c1` [Example 1.20], for which the IC50 under setting [1] came out at 0.66 µM.

Regarding `CCOc1ccc(C2CCN(c3ccc([C@H](C)NC(=O)c4csc(NC(C)=O)n4)cc3)CC2)cc1` [Example 3.7], under setting [1], the IC50 stood at 1.48 µM.

On to `CC(=O)NC(C)c1ccc(N2CCC(c3cccc(OC4CCC4)c3)CC2)cc1F` (centres unmarked) [Example 1.47], for which the IC50 under setting [1] came out at 0.43 µM.
